Values of other authors in patent publication US8563582B2, “3-aminocyclopentanecarboxamides as modulators of chemokine receptors” (priority 2004, dated 2013).

What was measured:
rhesus macaque CCR5 = rhesus macaque CCR5 (Macaca mulatta, UniProt P61813)
human CCR5 = human CCR5 (Homo sapiens, UniProt P51681)
HIV-1 [1] = system: HIV-1
HIV-1 [2] = conditions: U-87 astroglioma cells

human CCR5, sequence (P51681 whole entry): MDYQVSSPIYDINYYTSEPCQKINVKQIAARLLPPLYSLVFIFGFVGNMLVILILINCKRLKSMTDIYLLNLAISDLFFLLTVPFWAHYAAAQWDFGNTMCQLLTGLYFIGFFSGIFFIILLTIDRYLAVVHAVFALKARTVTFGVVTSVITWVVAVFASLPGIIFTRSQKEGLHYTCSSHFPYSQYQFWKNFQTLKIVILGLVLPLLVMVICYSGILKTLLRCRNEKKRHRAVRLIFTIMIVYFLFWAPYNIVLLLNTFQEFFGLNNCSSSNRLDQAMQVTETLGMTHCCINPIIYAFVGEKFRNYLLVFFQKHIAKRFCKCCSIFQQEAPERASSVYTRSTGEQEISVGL

SMILES | inhibition of HIV-1 entry via rhesus macaque CCR5 (rhesus macaque CCR5) | inhibition of entry of HIV-1 via human CCR5 (human CCR5) | effect on infection of CXCR4-expressing cells (HIV-1 [1]) | inhibition of HIV-1 infection mediated by CCR5 (HIV-1 [2]) | anti-HIV activity (HIV)
Cc1ncnc(C)c1C(=O)N1CCC(C)(N2CCN([C@@H](C)c3ccc(C(F)(F)F)cc3)[C@@H](C)C2)CC1 [AD101] | inhibits | inhibits |  |  | 
CCO/N=C(\c1ccc(Br)cc1)C1CCN(C2(C)CCN(C(=O)c3c(C)cc[n+]([O-])c3C)CC2)CC1 [SCH-C] | does not |  | no effect | specifically inhibits | 
Cc1ccc(-c2ccc3c(c2)C=C(C(=O)Nc2ccc(C[N+](C)(C)C4CCOCC4)cc2)CCC3)cc1.[Cl-] [TAK-779] |  |  |  |  | potent but variable
